Measurements as given in US11116774B2, “Modulators of toll-like receptors for the treatment of HIV” (Gilead Sciences, Inc., priority 2014, dated 2021).

Experiments:
[1] = test system: peripheral CD8 lymphocytes (CD3+CD8+CD4−); assay: Peripheral lymphocyte activation, CD69 by flow cytometry: CD8 lymphocytes (Example 206); assay type: in vivo, rhesus macaque
From the text: During the course of treatment with the compound of Example 4 as described in Example 204, peripheral lymphocyte activation was monitored in the groups dosed with the compound of Example 4 or the dosing vehicle of Example 201 (placebo), by measuring the expression of the early activation marker CD69 on various lymphocyte subsets by flow cytometry methodology. This methodology was used to quantify the percentage of immune cell subsets expressing the early activation marker. Standard data acquisition techniques were employed on a flow cytometer and by the use of antibodies conjugated to fluorescent molecules where the antibodies recognize rhesus macaque cell surface proteins on various immune cell subsets. In animals dosed with the compound of Example 4, whole blood samples were collected for each dose at various time points both at pre- and post-administration of compound. Total PBMCs were stained in the whole blood samples using antibodies that were chosen to be reactive to rhesus CD3, CD4, CD8, NKG2A, CD16 and CD56, each conjugated to different fluorescent probes to delineate CD3+CD4+CD8− lymphocytes, CD3+CD4−CD8+ lymphocytes and CD3-CD8+ NKG2A+CD16+ CD56+ NK cells. The flow cytometry data presented herein are from animals treated with the compound of Example 4.

[2] = test system: cytokines and chemokines in PBMCs from HIV-infected donors; assay: Induction of cytokines/chemokines ex vivo, Luminex (Example 211); assay type: cell-based, human; conditions: PBMC supernatant day 2
Procedure: PBMCs from HIV-infected donors on suppressive cART were isolated, as described previously, and immediately added to tissue culture plates pre-equilibrated at 37° C. with media containing DMSO or the compound of Example 49 (GS-9620) at concentrations from 0.1 nM or 10.0 uM. At day 2 after treatment, cell-free culture supernatants were collected and frozen at −80C for subsequent analysis. Frozen supernatants were thawed at room temperature, and the cytokines and chemokines indicated were quantitated with a custom multiplexed xMAP Luminex® assay following the manufacturer's instructions (Thermo Fisher Scientific Inc., Grand Island, N.Y., custom-designed kit).

CCCCOc1nc(N)c2c(n1)N(Cc1ccc(CN3CCCC3)cc1)CC(=O)N2 [Example 4]
9.5%: mean maximum percent change in CD69 expression on CD8 lymphocytes ([1]; dose 0.2 mg/kg, pre-dose range 3.0-15.7%)
7.8%: mean maximum percent change in CD69 expression on CD8 lymphocytes ([1]; dose 0.1 mg/kg, any time point (rise 24 to 72 hours post-dose), pre-dose range 3.3-12.6%)
15.5%: mean maximum percent change in CD69 expression on CD8 lymphocytes ([1]; all subsequent 0.3 mg/kg doses)
17.3%: mean maximum percent change in CD69 expression on CD8 lymphocytes ([1]; first dose of 0.3 mg/kg, pre-dose range 5.0-14.4%)

CCCCOc1nc(N)c2c(n1)N(Cc1cccc(CN3CCCC3)c1)CC(=O)N2 [Example 49]
>100-fold: I-TAC fold induced vs. DMSO control [2] | IFNα fold induced vs. DMSO control [2] | IFNω fold induced vs. DMSO control [2] | IL-1 RA fold induced vs. DMSO control [2] | IL-6 fold induced vs. DMSO control [2] | IL-10 fold induced vs. DMSO control [2] | IP-10 fold induced vs. DMSO control [2] | MCP-1 fold induced vs. DMSO control [2] | MIP-1α fold induced vs. DMSO control [2] | MIP-1β fold induced vs. DMSO control [2]
<2-fold: BAFF fold induced vs. DMSO control [2] | IFNβ fold induced vs. DMSO control [2] | IL-4 fold induced vs. DMSO control [2] | IL-5 fold induced vs. DMSO control [2] | IL-12 (p70) fold induced vs. DMSO control [2] | IL-13 fold induced vs. DMSO control [2] | IL-17 fold induced vs. DMSO control [2] | IL-18 fold induced vs. DMSO control [2] | IL-27 fold induced vs. DMSO control [2] | IL-31 fold induced vs. DMSO control [2] | MMP-1 fold induced vs. DMSO control [2] | SCD40L fold induced vs. DMSO control [2] | TNFS10 fold induced vs. DMSO control [2]
